# According to ChEMBL document CHEMBL5465560, “Selectivity Literature for EUbOPEN Chemogenomic Library” (2024):
# Experiments:
# [1] = molecular target: T1, Serine/threonine-protein kinase DCLK1 (Homo sapiens) (UniProt O15075); assay: Selectivity interaction (Kinase panel (DSF assay)) EUB0001558a DCLK1
# T1 sequence (whole entry): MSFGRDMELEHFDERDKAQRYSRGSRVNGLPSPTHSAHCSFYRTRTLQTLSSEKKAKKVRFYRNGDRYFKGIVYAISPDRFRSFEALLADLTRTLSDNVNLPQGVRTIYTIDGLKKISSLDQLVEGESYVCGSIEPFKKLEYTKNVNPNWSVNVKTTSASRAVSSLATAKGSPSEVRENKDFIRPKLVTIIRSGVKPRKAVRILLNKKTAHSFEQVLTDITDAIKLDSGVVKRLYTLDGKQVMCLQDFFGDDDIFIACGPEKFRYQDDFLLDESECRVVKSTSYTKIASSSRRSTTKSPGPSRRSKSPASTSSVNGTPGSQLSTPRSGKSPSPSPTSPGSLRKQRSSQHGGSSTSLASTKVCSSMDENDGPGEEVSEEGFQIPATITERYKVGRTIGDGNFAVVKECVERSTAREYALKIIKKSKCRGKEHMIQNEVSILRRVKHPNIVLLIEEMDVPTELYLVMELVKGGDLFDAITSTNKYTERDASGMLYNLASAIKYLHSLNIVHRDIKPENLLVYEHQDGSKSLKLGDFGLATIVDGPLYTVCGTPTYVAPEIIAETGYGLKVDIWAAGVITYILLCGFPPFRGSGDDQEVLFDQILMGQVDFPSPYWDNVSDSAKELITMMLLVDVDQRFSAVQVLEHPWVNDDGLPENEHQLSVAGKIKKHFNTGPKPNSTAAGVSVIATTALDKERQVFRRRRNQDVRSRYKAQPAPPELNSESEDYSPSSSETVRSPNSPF
# [2] = molecular target: T2, Serine/threonine-protein kinase Nek5 (Homo sapiens) (UniProt Q6P3R8); assay: Selectivity interaction (KinomeScan (DiscoverX)) EUB0001079a NEK5; settings: at 1 µM
# T2 sequence (whole entry): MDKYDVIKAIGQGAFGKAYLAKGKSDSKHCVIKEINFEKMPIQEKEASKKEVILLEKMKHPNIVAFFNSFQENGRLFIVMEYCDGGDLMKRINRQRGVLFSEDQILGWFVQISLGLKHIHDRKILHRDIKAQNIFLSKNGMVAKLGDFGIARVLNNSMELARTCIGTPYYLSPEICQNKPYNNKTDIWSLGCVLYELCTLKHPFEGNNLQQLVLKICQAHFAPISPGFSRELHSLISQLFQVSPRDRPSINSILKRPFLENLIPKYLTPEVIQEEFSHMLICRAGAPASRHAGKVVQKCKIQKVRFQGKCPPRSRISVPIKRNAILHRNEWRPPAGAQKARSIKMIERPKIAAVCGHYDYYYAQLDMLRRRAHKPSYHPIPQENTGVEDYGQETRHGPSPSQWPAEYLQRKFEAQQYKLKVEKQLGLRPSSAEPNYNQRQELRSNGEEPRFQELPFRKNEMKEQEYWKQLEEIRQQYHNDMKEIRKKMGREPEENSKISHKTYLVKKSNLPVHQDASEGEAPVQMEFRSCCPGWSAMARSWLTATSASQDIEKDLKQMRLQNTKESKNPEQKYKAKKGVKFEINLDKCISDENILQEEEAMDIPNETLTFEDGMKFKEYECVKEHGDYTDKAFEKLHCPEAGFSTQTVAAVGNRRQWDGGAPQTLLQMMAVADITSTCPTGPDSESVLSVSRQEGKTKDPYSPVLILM
# [3] = molecular target: Serine/threonine-protein kinase 10 (Homo sapiens) (UniProt O94804); assay: Selectivity interaction (KinomeScan (DiscoverX)) EUB0001079a STK10; settings: at 1 µM
# [4] = molecular target: Proto-oncogene tyrosine-protein kinase Src (Homo sapiens, UniProt P12931); assay: Selectivity interaction (KinomeScan (DiscoverX)) EUB0001868a SRC; settings: at 1 µM
# [5] = molecular target: Ribosomal protein S6 kinase alpha-3 (Homo sapiens, UniProt P51812); assay: Selectivity interaction (ActivX KiNativ screen (kinase selectivity in THP-1 cell lysates)) EUB0000639a RPS6KA3; assay type: subcellular; settings: lysate, at 0.01 µM
# [6] = molecular target: 5-hydroxytryptamine receptor 1B (Homo sapiens) (UniProt P28222); assay: Selectivity interaction (Panel of kinases, GPCRs, ion channels and transporters (enzymatic assay)) EUB0000223bCl HTR1B
# [7] = molecular target: Serine/threonine-protein kinase 38-like (Homo sapiens) (UniProt Q9Y2H1); assay: Selectivity interaction (KinomeScan (DiscoverX)) EUB0000607a STK38L; settings: at 10 µM
# [8] = molecular target: Serine/threonine-protein kinase pim-1 (Homo sapiens, UniProt P11309); assay: Selectivity interaction (KinomeScan (DiscoverX)) EUB0001049a PIM1; settings: at 1 µM
# [9] = molecular target: Dual specificity tyrosine-phosphorylation-regulated kinase 1B (Homo sapiens, UniProt Q9Y463); assay: Selectivity interaction (Enzymatic assay (Eurofins)) EUB0001049a DYRK1B
# [10] = molecular target: Ribosomal protein S6 kinase alpha-4 (Homo sapiens) (UniProt O75676); assay: Selectivity interaction (KinomeScan (DiscoverX)) EUB0000045b RPS6KA4; settings: at 10 µM
# [11] = molecular target: T3, Serine/threonine-protein kinase ICK (Homo sapiens) (UniProt Q9UPZ9); assay: Selectivity interaction (Ambit KINOMEscan and KiNATiv profiling in Jurkat cells) EUB0000090b ICK; assay type: cell-based; settings: at 1 µM
# T3 sequence (whole entry): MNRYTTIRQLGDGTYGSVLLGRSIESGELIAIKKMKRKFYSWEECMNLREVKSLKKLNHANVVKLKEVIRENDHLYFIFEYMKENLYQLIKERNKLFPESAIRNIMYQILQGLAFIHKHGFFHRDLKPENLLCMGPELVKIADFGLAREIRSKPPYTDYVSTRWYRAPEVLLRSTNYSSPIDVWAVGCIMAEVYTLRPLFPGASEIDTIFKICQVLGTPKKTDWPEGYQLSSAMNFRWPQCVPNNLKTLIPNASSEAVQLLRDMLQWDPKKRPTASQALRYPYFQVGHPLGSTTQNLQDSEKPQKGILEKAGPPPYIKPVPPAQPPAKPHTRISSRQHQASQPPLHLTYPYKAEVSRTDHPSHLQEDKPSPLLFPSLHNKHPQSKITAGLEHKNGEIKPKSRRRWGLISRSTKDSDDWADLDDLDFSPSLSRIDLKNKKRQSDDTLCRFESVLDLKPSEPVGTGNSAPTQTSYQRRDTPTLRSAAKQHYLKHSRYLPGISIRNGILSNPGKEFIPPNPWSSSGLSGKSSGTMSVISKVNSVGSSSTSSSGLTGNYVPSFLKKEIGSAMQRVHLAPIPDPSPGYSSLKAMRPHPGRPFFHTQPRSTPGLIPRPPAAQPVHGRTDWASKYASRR
# Insulin receptor = Insulin receptor (Homo sapiens, UniProt P06213); assay: Selectivity interaction (Ambit KINOMEscan and KiNATiv profiling in Jurkat cells) EUB0000090b INSR; assay type: cell-based; settings: at 1 µM
# [12] = molecular target: DNA-dependent protein kinase catalytic subunit (Homo sapiens) (UniProt P78527); assay: Selectivity interaction (ActivX KiNativ screen (ex vivo kinase selectivity in human PBMCs)) EUB0001619a PRKDC; assay type: cell-based; settings: PBMC, at 1 µM
# Serine/threonine-protein kinase 38-like (Homo sapiens), sequence (Q9Y2H1 2-464 limits assumed): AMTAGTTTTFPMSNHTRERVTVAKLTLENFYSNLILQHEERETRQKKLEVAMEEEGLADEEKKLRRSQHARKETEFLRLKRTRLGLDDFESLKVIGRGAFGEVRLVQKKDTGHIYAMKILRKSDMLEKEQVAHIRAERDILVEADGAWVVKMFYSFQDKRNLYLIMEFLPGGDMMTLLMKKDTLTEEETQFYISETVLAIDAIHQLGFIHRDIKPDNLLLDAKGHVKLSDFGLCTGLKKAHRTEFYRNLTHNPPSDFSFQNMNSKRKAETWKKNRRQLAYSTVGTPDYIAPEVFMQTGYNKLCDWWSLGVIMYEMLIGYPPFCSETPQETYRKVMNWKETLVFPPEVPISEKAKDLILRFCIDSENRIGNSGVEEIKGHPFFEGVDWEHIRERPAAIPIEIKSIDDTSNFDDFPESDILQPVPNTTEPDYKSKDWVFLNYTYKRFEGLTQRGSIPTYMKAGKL
# Ribosomal protein S6 kinase alpha-4 (Homo sapiens), sequence (O75676 whole entry, looked up): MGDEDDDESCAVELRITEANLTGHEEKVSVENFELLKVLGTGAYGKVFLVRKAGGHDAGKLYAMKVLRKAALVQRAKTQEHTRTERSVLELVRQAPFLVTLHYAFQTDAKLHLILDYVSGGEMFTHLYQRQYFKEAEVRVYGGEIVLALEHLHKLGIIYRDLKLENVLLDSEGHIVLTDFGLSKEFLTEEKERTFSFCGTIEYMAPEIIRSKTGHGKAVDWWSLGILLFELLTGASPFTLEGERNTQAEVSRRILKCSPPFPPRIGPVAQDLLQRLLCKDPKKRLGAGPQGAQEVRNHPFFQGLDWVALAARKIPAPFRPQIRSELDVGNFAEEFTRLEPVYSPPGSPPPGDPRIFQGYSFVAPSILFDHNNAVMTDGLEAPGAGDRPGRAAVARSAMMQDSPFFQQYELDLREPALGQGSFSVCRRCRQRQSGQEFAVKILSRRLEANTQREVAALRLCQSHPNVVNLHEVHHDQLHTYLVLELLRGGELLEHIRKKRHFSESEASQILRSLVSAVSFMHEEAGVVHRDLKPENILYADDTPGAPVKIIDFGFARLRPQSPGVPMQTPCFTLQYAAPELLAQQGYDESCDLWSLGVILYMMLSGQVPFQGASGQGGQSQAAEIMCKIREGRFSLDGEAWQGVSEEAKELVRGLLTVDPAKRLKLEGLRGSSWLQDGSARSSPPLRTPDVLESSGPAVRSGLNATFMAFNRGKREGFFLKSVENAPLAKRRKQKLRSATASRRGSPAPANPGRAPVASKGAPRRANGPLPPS
# Serine/threonine-protein kinase 10 (Homo sapiens), sequence (O94804 whole entry, looked up): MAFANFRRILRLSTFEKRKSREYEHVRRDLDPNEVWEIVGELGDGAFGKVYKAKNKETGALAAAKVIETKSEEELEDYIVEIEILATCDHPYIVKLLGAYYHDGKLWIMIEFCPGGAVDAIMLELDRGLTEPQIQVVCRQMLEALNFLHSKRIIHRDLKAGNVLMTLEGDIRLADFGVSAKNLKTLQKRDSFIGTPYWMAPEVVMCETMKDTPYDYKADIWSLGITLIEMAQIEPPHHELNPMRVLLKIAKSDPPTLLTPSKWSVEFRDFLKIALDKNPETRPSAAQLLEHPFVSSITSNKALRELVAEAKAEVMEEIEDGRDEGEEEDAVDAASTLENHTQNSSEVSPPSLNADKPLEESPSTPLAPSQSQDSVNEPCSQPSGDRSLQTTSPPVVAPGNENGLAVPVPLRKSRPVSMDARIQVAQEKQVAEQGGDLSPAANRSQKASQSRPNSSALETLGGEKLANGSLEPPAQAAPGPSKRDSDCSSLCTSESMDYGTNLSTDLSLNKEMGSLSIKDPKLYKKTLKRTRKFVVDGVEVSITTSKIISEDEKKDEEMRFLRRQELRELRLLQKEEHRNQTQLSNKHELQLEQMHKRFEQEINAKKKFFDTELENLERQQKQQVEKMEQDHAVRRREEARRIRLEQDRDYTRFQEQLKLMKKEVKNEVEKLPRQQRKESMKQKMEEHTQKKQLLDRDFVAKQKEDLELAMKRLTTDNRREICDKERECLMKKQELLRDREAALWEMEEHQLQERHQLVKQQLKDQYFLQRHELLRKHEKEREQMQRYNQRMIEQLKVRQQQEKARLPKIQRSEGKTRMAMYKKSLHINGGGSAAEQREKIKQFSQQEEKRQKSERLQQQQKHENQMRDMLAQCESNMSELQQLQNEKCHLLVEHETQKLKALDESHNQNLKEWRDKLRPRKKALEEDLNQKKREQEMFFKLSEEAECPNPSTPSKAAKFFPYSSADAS
# Proto-oncogene tyrosine-protein kinase Src, sequence (P12931 2-536 limits assumed): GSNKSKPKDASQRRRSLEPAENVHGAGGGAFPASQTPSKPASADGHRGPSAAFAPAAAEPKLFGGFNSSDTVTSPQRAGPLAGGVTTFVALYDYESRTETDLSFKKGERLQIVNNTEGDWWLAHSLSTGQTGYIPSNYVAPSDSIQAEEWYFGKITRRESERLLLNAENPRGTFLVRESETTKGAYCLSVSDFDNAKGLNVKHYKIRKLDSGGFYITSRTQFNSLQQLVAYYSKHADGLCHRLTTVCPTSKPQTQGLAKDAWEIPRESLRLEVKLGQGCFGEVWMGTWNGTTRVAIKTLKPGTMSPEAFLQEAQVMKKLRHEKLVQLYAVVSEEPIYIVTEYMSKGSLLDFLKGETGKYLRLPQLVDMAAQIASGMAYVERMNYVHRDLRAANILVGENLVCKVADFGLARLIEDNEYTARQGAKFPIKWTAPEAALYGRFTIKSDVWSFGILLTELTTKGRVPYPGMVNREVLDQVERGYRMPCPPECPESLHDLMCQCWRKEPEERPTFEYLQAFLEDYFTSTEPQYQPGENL
# Serine/threonine-protein kinase pim-1, sequence (P11309 whole entry, looked up): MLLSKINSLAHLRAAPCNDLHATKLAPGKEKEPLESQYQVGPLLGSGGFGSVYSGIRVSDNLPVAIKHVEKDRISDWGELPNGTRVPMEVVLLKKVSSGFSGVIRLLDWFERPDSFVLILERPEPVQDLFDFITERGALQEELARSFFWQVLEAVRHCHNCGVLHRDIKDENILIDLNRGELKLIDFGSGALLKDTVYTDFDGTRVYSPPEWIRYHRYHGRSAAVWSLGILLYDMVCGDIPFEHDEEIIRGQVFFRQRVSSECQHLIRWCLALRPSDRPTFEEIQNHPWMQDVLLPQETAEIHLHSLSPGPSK
# Ribosomal protein S6 kinase alpha-3, sequence (P51812 whole entry): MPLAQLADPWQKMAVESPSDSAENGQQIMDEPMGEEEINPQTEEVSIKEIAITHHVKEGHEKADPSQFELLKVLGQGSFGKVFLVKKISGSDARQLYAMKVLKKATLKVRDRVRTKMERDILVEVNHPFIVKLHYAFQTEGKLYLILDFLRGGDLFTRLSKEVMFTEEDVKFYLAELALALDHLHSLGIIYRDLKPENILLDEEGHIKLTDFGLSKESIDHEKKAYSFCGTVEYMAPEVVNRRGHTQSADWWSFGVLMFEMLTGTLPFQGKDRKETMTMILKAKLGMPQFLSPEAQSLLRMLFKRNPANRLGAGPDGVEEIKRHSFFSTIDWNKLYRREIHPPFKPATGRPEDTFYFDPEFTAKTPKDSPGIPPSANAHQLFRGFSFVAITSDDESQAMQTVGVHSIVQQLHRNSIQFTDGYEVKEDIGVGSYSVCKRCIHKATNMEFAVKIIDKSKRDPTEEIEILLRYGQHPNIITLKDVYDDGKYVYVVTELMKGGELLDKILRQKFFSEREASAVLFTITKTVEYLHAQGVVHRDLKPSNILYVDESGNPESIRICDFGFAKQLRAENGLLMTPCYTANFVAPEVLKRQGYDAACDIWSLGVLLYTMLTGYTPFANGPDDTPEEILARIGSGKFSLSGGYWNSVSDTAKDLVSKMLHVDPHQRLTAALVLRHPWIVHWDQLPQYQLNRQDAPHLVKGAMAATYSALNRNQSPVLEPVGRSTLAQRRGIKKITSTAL
# Dual specificity tyrosine-phosphorylation-regulated kinase 1B, sequence (Q9Y463 whole entry): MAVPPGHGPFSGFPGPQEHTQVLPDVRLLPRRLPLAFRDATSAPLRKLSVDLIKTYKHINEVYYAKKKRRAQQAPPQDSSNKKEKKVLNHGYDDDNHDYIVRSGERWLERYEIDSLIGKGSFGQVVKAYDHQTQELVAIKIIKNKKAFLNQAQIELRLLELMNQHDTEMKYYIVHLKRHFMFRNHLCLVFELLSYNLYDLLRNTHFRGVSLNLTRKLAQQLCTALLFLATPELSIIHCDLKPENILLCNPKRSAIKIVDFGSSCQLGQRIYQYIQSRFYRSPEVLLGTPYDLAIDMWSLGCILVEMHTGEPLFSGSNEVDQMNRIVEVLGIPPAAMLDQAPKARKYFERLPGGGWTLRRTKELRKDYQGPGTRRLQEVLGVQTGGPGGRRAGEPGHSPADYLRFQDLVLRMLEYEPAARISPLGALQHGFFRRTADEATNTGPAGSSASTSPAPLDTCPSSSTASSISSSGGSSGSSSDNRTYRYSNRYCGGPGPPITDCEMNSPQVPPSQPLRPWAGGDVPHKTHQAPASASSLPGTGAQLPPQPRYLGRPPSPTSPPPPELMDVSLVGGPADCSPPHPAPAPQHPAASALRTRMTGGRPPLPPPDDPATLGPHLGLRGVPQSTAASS
# 5-hydroxytryptamine receptor 1B (Homo sapiens), sequence (P28222 whole entry): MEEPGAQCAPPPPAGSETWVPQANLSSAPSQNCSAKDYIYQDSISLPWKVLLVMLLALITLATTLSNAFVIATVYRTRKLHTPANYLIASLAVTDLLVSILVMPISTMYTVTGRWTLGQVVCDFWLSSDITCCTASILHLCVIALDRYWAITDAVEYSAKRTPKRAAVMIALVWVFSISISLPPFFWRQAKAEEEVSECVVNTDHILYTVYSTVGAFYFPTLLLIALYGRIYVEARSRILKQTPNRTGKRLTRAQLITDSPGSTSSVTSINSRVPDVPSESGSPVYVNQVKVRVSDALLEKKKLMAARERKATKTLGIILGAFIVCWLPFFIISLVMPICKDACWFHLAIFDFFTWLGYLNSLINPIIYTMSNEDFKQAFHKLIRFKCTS
compound,measurement,setting,value
CC(C)(O)[C@H](F)CN1Cc2cc(NC(=O)c3cnn4cccnc34)c(N3CCOCC3)cc2C1=O,dTM,[1],-1 K
Nc1cnc(N2CCc3cc(S(=O)(=O)Nc4c(F)cc(Cl)cc4F)cc(N4CCCC4=O)c32)nc1 [TP-020n],% of control,[2],100%
same,% of control,[3],100%
Cc1cc(-c2ccnc(Nc3cnn(C)c3)n2)ccc1CNC(=O)N1CC(OC(C)C)C1,% of control,[4],31%
CC[C@@H]1[C@H](F)C(=O)N[C@@H]1COc1nccc2cc(C(N)=O)c(OC)cc12 [ZIMLOVISERTIB],% of inhibition,[5],17.5%
COc1cc(C(=O)N2CC[C@@H](O)[C@@H](N)C2)cc2nc(-c3cc4ccccc4n3CC3CC3)n(C)c12,pXC50,[6],< 4.5 M
CNC(=O)Nc1ccc(-c2nc(N3CC4CCC(C3)O4)c3cnn(C4CCC5(CC4)OCCO5)c3n2)cc1,% of control,[7],100%
COc1cc(Nc2nc(C)cc(-c3cnn4nc(OC)ccc34)n2)cc(C(F)(F)F)c1,% of control,[8],100%
same,IC50,[9],> 10 µM
C=CC(=O)Nc1cc(-n2c(=O)ccc3cnc4ccc(-c5ccc(NS(C)(=O)=O)cc5)cc4c32)ccc1C,% of control,[10],81%
CN(C)C/C=C/C(=O)Nc1ccc(C(=O)N2CCCC(Nc3ncc(Cl)c(-c4c[nH]c5ccccc45)n3)C2)cc1 (stereo not drawn),% of control,[11],62%
same,% of control,Insulin receptor,100%
N#Cc1cccc(-c2c[nH]c3ncnc(N4CCOCC4)c23)c1,% of inhibition,[12],-6%
